The text below walks through data of PMC12467487, “An In Vitro Study of Protein S-Glutathionylation by Members of the CLIC Protein Family” (Biomolecules, 2025).

Assay in all cases: tryptophan fluorescence quenching, glutathionylation of SQLWCLSN, AUC
What all share (format): biochemical

For assay [1], the target named is T1, rCLIC3 (Homo sapiens, UniProt O95833).
T1 construct: gene CLIC3; recombinant, soluble form; pET28a(+), E. coli BL21(DE3); His-tag removed by thrombin; SEC; endotoxin removed
As to conditions: 5 mM GSSG, 100 uM peptide, McIlvaine's buffer pH 8, 0.1 uM enzyme; 1 h pre-incubation with 10 uM IAA-94.

Assay [2] has as its target T2, rCLIC4 (Homo sapiens, UniProt Q9Y696).
T2 construct: gene CLIC4; recombinant, soluble form; pET28a(+), ClearColi BL21(DE3); His-tag removed by thrombin; SEC
The conditions noted are these: 5 mM GSSG, 100 uM peptide, McIlvaine's buffer pH 7, 0.1 uM enzyme; 1 h pre-incubation with 10 uM IAA-94.

The target in assay [3] is T3, rCLIC1 (Homo sapiens, UniProt O00299).
T3 construct: gene CLIC1; recombinant, soluble form; pET28a(+), ClearColi BL21(DE3); His-tag removed by thrombin; SEC
The conditions noted are these: 5 mM GSSG, 100 uM peptide, McIlvaine's buffer pH 7, 0.1 uM enzyme; 1 h pre-incubation with 10 uM IAA-94.

T2 sequence (Q9Y696 whole entry): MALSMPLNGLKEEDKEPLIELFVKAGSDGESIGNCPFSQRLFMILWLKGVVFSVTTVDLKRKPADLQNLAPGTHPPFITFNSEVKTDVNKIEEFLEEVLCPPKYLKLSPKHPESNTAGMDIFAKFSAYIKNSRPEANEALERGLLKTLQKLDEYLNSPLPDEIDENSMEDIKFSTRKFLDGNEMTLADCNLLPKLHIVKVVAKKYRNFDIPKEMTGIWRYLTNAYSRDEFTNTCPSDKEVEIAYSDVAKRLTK
T1 sequence (O95833 whole entry): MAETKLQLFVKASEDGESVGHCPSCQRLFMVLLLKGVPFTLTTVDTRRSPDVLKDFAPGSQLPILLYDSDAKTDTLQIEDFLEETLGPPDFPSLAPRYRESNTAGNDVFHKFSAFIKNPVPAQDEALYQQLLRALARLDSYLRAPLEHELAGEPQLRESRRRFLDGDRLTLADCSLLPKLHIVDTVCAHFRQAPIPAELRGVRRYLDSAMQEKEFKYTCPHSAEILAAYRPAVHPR

For `CC1(C2CCCC2)Cc2cc(OCC(=O)O)c(Cl)c(Cl)c2C1=O` (stereo not drawn) [IAA-94], the “fold reduction of glutathionylation activity at 10 uM” value in assay [1] was found to be 0.2 fold. The “fold decrease in glutathionylation activity at 10 uM” value was 0.4 fold in assay [2] and 0.7 fold in assay [3].
